In paper PMC6789111, “Crossing the blood-brain-barrier with nanoligand drug carriers self-assembled from a phage display peptide” (Nature Communications, 2019):

Columns and labels:
Format in all cases: cell-based, human
[1] = tested on: RAGE; assay: RAGE silencing with siPORT Amine, Western blot; settings: 28 nM siRNA with siPORT Amine
Experimental: (§1) hCMEC/D3 cells were transfected with anti-TfR siRNA [sense sequence ([NT]) and antisense sequence ([NT])] or anti-RAGE siRNA [sense sequence ([NT]) and antisense sequence [NT]] or control siRNA using siPORT Amine transfection agent, according to the manufacturer' Neofection protocol. Briefly, siPORT Amine transfection reagent (7 μL) was added to serum-free cell medium to a final volume of 100 μL and vortexed. […] The mixture was gently mixed and incubated at room temperature for 20 min. The transfection agent/siRNA complex was added to culture plates containing 2.3 × 10^5 hCMEC/D3 cells in 2.3 mL normal growth medium. The final concentration of siRNA was 28 nM. After 24 h incubation, the medium containing transfection agent/siRNA complex was removed and fresh growth medium was added. After 48 h post transfection, the level of target protein (TfR or RAGE) was determined by Western blotting. […] Uptake was quantified by measuring fluorescence using FACS. Transferrin receptor and RAGE expression level in human cells was determined by Western blot analysis. Briefly, cells were seeded in 75 cm^2-flasks and grown to reach 60-70% confluence. The cells were washed in ice-cold PBS three times and then scraped off the flask and collected by centrifugation. The pelleted cells were lysed for 10 min at room temperature on a shaker (900 rpm) following the ProteoJETTM Mammalian Cell Lysis Reagent protocol. Lysates were spun in a centrifuge at 18,000 × g for 15 min and the supernatant was collected. Equal protein aliquots were resolved by SDS-PAGE, transferred to nitrocellulose membranes using iBot Dry Blotting system (Invitrogen, CA, USA), immunoblotted with primary antibodies (mouse anti-human TfR antibody or rabbit polyclonal to mouse and human RAGE) (1;200 and 1:750, respectively) and detected with HRP-Goat-anti-mouse (or rabbit) IgG (H + L) secondary antibody (1:3000). Tubulin was immunoblotted with mouse anti-human-β-tubulin (1:200) and detected with HRP-Goat-anti-mouse IgG (H + L) secondary antibody (1:3000). These were followed by incubation with Novex® ECL Chemiluminescent Substrate Reagent Kit. The Bands were quantified with ImageJ 1.44p (http://imagej.nih.gov/ij/).

[2] = tested on: hCMEC/D3 cells; assay: Trypan Blue exclusion test; settings: after receptor down regulation
[3] = tested on: TfR; assay: TfR silencing with siPORT Amine, Western blot; settings: 28 nM siRNA with siPORT Amine
Experimental: as §1

[4] = tested on: TfR; assay: TfR silencing by peptide/siRNA nano-assemblies, Western blot
Experimental: Transferrin receptor and RAGE expression level in human cells was determined by Western blot analysis. Briefly, cells were seeded in 75 cm^2-flasks and grown to reach 60-70% confluence. The cells were washed in ice-cold PBS three times and then scraped off the flask and collected by centrifugation. The pelleted cells were lysed for 10 min at room temperature on a shaker (900 rpm) following the ProteoJETTM Mammalian Cell Lysis Reagent protocol. Lysates were spun in a centrifuge at 18,000 × g for 15 min and the supernatant was collected. Equal protein aliquots were resolved by SDS-PAGE, transferred to nitrocellulose membranes using iBot Dry Blotting system (Invitrogen, CA, USA), immunoblotted with primary antibodies (mouse anti-human TfR antibody or rabbit polyclonal to mouse and human RAGE) (1;200 and 1:750, respectively) and detected with HRP-Goat-anti-mouse (or rabbit) IgG (H + L) secondary antibody (1:3000). Tubulin was immunoblotted with mouse anti-human-β-tubulin (1:200) and detected with HRP-Goat-anti-mouse IgG (H + L) secondary antibody (1:3000). These were followed by incubation with Novex® ECL Chemiluminescent Substrate Reagent Kit. The Bands were quantified with ImageJ 1.44p (http://imagej.nih.gov/ij/). […] Next, the mixtures were diluted with saline to a final peptide concentration 5 μM for TEM studies. […] After 24 h incubation, the medium was replaced by fresh growth medium. After another 48 h of incubation, the level of the target protein was determined by Western blotting. The results were compared with parallel experiments containing nano-assemblies formed from FAM-CGY and an irrelevant siRNA as well as transfection procedures with complexes formed between siRNA and siPORT Amine transfection agent. Cy3-siRNA uptake was quantified by measuring median cell fluorescence using FACS.

[5] = tested on: claudin-5; assay: Claudin-5 silencing, Western blot; settings: siRNA delivered with FAM-CGY (5 µM), 72 h after transfection
Experimental: Peptide/siRNA assemblies were formed by dropwise addition (80–240 nM range) of either Cy3-siRNA or functional anti-TfR siRNA or anti-Claudin-5 siRNA (with the sense and antisense sequences of 5′-[…]tt-3′ and 5′-[…]gc-3′) to 50 µM FAM-CGY in physiological saline and incubated for 30 min. Next, the mixtures were diluted with saline to a final peptide concentration 5 µM for TEM studies. In vitro uptake and silencing experiments were performed in hCMEC/D3 cells. Briefly, peptide/siRNA nano-assemblies (5 µM FAM-CGY and either 8 or 16 or 24 nM functional siRNA, final concentration) were added to 2.3 × 10^5 hCMEC/D3 cells. After 24 h incubation, the medium was replaced by fresh growth medium. After another 48 h of incubation, the level of the target protein was determined by Western blotting. The results were compared with parallel experiments containing nano-assemblies formed from FAM-CGY and an irrelevant siRNA as well as transfection procedures with complexes formed between siRNA and siPORT Amine transfection agent. Cy3-siRNA uptake was quantified by measuring median cell fluorescence using FACS.
Supplementary Fig. 20. […] FAM-CGY (5 µM final concentration)/CLDN5-specific siRNA assemblies effectively down regulates CLDN5 in hCMEC/D3 cells as determined by Western blotting. […] CLDN5 expression was measured 72 h after transfection. […]

[6] = hCMEC/D3, control siRNA = 100.00, replicate 1

| Substance | RAGE expression level (%) [1, 6] [%] | RAGE expression level (%) ([1]; Ave.) | RAGE expression level (%) ([1]; replicate 2) | RAGE expression level (%) ([1]; replicate 3) | cell viability [2] [%] | TfR expression level (%) [3, 6] [%] | TfR expression level (%) ([3]; Ave.) | TfR expression level (%) ([3]; replicate 2) | TfR expression level (%) ([3]; replicate 3) | TfR expression leve (% of control) ([4]; 8 nM siRNA, presumably complexed with 5 µM FAM-CGY, hCMEC/D3, 24 h + 48 h, replicate 1) [%] | TfR expression leve (% of control) ([4]; 8 nM siRNA, Ave.) [%] | TfR expression leve (% of control) ([4]; 8 nM siRNA, replicate 2) [%] | TfR expression leve (% of control) ([4]; 8 nM siRNA, replicate 3) [%] | TfR expression leve (% of control) ([4]; 16 nM siRNA, Ave.) [%] | TfR expression leve (% of control) ([4]; 24 nM siRNA, presumably siRNA alone, Ave.) [%] | TfR expression leve (% of control) ([4]; 24 nM siRNA, presumably with siPORT, Ave.) [%] | claudin-5 expression [5] |
| --- | --- | --- | --- | --- | --- | --- | --- | --- | --- | --- | --- | --- | --- | --- | --- | --- | --- |
| RAGE siRNA: sense 5′-GGUGGAACCGUAACCUGAtt-3′, antisense 5′-UCAGGGUUACGGUUCCACCag-3′ (sense GGUGGAACCGUAACCUGATT; antisense UCAGGGUUACGGUUCCACCAG; chemistry not given here) | 54.86 | 53.86 | 57.89 | 48.82 | > 95 | – | – | – | – | – | – | – | – | – | – | – | – |
| TfR siRNA: sense 5′-GGUCAUCAGGAUUGCCUAAtt-3′, antisense 5′-UUAGGCAAUCCUGAUGACCga-3′ (sense GGUCAUCAGGAUUGCCUAATT; antisense UUAGGCAAUCCUGAUGACCGA; chemistry not given here) | – | – | – | – | > 95 | 30.26 | 34.58 | 32.56 | 40.91 | 75.56 | 70.89 | 65.03 | 72.08 | 54.45 | 90.00 | 38.58 | – |
| claudin-5-specific siRNA: sense 5′-CCUUAACAGACGGAAUGAAtt-3′, antisense 5′-UUCAUUCCGUCUGUUAAGGgc-3′ (sense CCUUAACAGACGGAAUGAATT; antisense UUCAUUCCGUCUGUUAAGGGC; chemistry not given here) | – | – | – | – | – | – | – | – | – | – | – | – | – | – | – | – | downregulation of claudin-5 |
